Data taken from ChEMBL document CHEMBL3991601, “The target landscape of clinical kinase drugs” (Science, 2017).
The source made the active and inactive calls.

Experiments:
[1] = biological target: Dual specificity protein kinase CLK3 (Homo sapiens, UniProt P49761); format: subcellular, K-562, COLO 205, SK-N-BE(2) and MV-4-11, Cell lysate; settings: read-out: Kd apparent
[2] = biological target: Uncharacterized aarF domain-containing protein kinase 5 (Homo sapiens, UniProt Q3MIX3)
[3] = biological target: Epidermal growth factor receptor (Homo sapiens, UniProt P00533)
[4] = biological target: T1, Isoleucine--tRNA ligase, mitochondrial (Homo sapiens, UniProt Q9NSE4)
T1 sequence (Q9NSE4 whole entry): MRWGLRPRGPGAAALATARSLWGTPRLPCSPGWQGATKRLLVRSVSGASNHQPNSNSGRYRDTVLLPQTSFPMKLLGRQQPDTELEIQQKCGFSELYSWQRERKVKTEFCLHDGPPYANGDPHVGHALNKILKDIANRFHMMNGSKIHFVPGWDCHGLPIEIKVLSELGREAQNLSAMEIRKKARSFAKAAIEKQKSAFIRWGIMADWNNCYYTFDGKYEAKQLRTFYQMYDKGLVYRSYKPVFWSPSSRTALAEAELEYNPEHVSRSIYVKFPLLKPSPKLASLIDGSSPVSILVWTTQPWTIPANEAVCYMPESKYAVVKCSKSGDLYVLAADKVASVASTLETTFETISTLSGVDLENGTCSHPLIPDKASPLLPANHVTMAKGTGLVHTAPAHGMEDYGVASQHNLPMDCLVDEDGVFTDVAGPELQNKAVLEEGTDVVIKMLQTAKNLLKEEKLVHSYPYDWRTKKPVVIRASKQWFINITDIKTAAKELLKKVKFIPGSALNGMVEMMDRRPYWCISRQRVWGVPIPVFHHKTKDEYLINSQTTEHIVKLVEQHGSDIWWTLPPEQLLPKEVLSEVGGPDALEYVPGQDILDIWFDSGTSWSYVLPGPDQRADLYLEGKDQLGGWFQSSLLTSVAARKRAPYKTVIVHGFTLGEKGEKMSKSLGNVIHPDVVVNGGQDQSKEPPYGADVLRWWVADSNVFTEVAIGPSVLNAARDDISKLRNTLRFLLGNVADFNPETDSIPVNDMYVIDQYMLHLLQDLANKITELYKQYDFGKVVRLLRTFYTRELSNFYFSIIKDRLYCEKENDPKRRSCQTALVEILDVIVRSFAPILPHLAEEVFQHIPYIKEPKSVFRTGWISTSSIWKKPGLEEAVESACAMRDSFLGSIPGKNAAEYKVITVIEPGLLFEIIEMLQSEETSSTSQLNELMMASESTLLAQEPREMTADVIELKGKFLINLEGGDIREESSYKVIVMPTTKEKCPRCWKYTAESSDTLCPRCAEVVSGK

[5] = biological target: T2, MAP/microtubule affinity-regulating kinase 4 (Homo sapiens, UniProt Q96L34)
T2 sequence (Q96L34 whole entry): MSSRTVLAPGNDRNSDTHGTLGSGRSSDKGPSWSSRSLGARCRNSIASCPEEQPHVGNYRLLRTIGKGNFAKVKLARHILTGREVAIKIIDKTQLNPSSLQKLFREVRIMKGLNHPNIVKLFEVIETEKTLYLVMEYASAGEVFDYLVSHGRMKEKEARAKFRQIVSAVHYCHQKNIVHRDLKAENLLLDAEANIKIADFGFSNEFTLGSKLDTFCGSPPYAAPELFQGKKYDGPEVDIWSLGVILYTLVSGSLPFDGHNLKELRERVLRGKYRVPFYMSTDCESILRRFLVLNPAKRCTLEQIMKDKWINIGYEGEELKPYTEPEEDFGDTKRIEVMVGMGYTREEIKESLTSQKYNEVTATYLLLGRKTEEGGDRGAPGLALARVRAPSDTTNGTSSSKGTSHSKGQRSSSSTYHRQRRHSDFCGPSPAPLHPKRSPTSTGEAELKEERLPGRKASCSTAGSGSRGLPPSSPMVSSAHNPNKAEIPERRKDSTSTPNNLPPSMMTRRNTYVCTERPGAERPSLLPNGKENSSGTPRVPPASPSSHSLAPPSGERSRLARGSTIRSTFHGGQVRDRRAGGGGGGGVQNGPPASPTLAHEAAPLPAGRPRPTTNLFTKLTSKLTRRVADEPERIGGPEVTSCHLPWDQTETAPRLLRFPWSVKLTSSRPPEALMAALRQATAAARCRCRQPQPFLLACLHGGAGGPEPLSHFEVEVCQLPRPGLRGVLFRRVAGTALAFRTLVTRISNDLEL

[6] = biological target: PAS domain-containing serine/threonine-protein kinase (Homo sapiens, UniProt Q96RG2)
Chain of PAS domain-containing serine/threonine-protein kinase (Q96RG2 whole entry, the tested form may be a part): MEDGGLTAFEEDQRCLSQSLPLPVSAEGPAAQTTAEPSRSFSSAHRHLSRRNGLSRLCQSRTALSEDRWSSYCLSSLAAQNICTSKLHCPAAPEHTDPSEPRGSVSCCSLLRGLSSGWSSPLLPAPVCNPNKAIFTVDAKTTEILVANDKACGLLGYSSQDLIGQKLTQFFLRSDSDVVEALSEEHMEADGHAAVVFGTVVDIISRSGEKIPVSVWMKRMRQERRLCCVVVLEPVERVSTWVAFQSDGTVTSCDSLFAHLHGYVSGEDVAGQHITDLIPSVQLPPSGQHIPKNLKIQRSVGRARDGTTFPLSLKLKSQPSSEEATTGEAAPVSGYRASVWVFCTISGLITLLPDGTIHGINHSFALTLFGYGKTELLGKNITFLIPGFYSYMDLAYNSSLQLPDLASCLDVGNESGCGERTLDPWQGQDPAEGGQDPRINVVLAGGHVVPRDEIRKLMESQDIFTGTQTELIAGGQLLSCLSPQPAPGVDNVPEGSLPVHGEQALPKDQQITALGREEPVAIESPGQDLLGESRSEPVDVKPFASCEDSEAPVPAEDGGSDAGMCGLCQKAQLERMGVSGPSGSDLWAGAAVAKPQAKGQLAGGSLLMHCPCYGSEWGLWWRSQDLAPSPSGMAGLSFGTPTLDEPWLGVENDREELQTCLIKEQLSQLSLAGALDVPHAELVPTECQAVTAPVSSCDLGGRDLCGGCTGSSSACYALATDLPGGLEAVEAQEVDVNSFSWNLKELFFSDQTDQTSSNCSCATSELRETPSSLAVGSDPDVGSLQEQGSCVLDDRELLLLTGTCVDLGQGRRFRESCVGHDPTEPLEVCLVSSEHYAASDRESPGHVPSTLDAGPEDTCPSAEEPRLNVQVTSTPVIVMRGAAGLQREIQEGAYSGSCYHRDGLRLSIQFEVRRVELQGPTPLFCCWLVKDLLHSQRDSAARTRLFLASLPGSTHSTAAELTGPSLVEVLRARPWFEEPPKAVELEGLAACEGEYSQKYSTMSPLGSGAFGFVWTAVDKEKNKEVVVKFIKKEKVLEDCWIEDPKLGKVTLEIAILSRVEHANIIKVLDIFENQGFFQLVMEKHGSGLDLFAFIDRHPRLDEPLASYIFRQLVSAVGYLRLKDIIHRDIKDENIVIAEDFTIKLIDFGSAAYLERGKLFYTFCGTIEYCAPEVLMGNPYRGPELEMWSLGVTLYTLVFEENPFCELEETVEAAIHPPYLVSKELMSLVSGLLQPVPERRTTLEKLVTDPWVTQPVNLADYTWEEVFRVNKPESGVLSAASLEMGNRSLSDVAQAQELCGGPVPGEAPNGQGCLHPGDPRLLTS

[7] = biological target: Membrane-associated progesterone receptor component 1 (Homo sapiens, UniProt O00264)
[8] = biological target: Dual specificity testis-specific protein kinase 1 (Homo sapiens, UniProt Q15569)
[9] = biological target: Dual specificity testis-specific protein kinase 2 (Homo sapiens, UniProt Q96S53)
Chain of Dual specificity testis-specific protein kinase 2 (Q96S53 whole entry): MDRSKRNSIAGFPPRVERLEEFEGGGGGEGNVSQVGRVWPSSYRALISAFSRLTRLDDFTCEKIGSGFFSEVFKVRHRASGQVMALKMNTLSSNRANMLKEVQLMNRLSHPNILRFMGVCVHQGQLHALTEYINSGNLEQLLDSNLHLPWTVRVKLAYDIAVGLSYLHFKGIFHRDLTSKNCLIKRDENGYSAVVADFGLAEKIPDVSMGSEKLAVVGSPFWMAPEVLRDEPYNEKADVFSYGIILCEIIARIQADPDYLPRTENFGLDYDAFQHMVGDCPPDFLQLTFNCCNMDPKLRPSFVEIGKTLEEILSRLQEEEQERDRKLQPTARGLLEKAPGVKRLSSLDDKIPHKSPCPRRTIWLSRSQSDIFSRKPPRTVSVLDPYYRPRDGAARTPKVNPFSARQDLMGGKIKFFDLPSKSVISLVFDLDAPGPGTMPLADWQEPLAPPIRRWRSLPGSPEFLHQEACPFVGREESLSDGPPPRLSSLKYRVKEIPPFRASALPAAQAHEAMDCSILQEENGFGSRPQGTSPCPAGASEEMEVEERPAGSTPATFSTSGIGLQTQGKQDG

[10] = biological target: Dual specificity mitogen-activated protein kinase kinase 1 (Homo sapiens, UniProt Q02750)
Chain of Dual specificity mitogen-activated protein kinase kinase 1 (Q02750 whole entry): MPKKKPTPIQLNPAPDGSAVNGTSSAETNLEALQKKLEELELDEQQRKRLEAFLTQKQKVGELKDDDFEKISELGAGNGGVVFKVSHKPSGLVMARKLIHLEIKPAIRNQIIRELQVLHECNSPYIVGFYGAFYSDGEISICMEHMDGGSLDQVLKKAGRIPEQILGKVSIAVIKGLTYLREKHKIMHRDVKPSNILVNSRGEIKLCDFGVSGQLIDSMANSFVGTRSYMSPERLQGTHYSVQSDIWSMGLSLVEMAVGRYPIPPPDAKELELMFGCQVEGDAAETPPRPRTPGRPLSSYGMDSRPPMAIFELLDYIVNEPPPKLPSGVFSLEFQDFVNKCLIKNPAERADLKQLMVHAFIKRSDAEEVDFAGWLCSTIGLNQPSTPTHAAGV

[11] = biological target: Hepatocyte growth factor receptor (Homo sapiens, UniProt P08581)
Chain of Hepatocyte growth factor receptor (P08581 whole entry): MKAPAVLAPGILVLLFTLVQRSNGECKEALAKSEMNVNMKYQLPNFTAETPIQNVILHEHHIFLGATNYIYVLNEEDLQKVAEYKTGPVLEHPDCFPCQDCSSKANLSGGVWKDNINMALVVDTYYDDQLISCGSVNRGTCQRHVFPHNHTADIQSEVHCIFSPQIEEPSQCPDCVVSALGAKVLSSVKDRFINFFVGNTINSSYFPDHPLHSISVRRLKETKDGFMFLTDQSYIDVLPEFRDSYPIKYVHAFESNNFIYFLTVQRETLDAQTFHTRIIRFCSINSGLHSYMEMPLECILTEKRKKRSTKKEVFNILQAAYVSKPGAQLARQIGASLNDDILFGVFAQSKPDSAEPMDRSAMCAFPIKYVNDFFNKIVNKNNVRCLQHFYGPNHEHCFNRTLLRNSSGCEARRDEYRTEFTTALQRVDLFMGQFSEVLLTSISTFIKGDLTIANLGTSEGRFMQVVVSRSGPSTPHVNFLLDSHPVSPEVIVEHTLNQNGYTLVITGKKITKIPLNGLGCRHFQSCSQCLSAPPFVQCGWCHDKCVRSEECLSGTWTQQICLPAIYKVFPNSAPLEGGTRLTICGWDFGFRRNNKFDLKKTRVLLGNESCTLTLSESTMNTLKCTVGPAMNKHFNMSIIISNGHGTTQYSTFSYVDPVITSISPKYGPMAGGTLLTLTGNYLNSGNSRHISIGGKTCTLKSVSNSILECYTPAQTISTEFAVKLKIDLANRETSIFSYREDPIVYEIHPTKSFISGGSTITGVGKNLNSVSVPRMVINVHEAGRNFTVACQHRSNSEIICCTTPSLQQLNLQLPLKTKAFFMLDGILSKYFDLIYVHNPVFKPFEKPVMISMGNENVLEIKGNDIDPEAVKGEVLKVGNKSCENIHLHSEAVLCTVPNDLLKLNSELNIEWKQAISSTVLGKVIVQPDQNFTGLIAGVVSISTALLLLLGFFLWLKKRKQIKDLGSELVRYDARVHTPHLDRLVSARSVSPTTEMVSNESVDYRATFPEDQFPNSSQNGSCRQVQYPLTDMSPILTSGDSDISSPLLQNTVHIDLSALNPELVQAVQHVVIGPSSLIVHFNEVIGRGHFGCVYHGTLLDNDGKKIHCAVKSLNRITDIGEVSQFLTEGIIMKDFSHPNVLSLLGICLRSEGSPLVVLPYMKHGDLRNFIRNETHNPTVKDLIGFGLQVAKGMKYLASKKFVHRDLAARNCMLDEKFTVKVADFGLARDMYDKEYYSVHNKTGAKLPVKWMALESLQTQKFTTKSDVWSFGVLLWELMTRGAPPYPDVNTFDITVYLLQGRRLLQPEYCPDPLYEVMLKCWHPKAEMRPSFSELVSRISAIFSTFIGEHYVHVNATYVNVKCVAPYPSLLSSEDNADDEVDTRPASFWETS

Myosin-10 = Myosin-10 (Homo sapiens, UniProt P35580)
[12] = biological target: Serine/threonine-protein kinase Nek7 (Homo sapiens, UniProt Q8TDX7)
Chain of Serine/threonine-protein kinase Nek7 (Q8TDX7 whole entry): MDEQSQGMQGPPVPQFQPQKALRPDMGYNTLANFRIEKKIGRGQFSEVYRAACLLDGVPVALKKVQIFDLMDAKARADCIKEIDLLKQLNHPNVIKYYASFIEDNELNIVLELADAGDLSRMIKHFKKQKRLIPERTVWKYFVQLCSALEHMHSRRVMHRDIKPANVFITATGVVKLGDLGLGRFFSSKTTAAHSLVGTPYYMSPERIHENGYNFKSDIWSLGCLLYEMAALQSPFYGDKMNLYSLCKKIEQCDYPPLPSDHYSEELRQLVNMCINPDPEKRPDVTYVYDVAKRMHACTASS

[13] = biological target: Protein kinase C theta type (Homo sapiens, UniProt Q04759)
[14] = biological target: Rho-associated protein kinase 1 (Homo sapiens, UniProt Q13464)
[15] = biological target: Dual specificity protein kinase CLK2 (Homo sapiens, UniProt P49760)
Chain of Dual specificity protein kinase CLK2 (P49760 whole entry): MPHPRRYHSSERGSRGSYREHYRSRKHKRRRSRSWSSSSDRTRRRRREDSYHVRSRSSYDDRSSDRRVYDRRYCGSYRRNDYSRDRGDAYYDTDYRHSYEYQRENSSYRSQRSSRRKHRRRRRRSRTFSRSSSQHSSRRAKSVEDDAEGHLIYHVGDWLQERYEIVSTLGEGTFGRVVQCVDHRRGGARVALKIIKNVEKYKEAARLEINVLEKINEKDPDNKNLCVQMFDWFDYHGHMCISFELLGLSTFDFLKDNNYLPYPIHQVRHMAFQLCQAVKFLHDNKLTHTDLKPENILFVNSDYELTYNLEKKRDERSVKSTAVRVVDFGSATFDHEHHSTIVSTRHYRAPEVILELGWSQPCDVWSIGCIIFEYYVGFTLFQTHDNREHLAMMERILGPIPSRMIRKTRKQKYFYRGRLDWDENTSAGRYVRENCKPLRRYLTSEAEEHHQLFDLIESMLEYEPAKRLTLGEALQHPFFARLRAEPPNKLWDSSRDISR

[16] = biological target: Dual specificity protein kinase CLK4 (Homo sapiens, UniProt Q9HAZ1)
[17] = biological target: Glycogen synthase kinase-3 beta (Homo sapiens, UniProt P49841)
Also: in the data inactive means no Kd found up to 30 µM.

Chain of Uncharacterized aarF domain-containing protein kinase 5 (Q3MIX3 whole entry, the tested form may be a part): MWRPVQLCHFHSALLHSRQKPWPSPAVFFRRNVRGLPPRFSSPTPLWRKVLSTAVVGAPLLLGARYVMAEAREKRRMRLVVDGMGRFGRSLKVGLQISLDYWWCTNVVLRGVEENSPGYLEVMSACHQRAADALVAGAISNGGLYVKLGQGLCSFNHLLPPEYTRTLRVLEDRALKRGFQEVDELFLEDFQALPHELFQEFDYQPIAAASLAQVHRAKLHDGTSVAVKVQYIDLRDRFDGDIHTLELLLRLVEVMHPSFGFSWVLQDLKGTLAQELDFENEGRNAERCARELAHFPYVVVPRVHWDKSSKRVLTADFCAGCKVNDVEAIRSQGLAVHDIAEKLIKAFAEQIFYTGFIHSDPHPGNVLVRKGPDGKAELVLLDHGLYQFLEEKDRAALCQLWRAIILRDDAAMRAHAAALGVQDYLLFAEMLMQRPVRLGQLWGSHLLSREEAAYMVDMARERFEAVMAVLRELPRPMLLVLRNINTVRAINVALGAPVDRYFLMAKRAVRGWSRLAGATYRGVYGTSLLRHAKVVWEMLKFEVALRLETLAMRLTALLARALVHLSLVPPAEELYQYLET

| SMILES | Kd [2] | Kd [3] | Kd [4] | Kd [5] | Kd [6] | Kd [7] | Kd [8] | Kd [9] | Kd [10] | Kd [11] | Kd (Myosin-10) | Kd [12] | Kd [13] | Kd [14] | Kd [15] | Kd [16] | Kd [17] | Kd [1] |
| --- | --- | --- | --- | --- | --- | --- | --- | --- | --- | --- | --- | --- | --- | --- | --- | --- | --- | --- |
| C=CCn1c(=O)c2cnc(Nc3ccc(N4CCN(C)CC4)cc3)nc2n1-c1cccc(C(C)(C)O)n1 [ADAVOSERTIB] | > 30 µM (inactive) | > 30 µM (inactive) | > 30 µM (inactive) | > 30 µM (inactive) | > 30 µM (inactive) | > 30 µM (inactive) | > 30 µM (inactive) | > 30 µM (inactive) | – | – | – | – | – | – | – | – | – | > 30 µM (inactive) |
| CCN(CCCOc1ccc2c(Nc3cc(CC(=O)Nc4cccc(F)c4)n[nH]3)ncnc2c1)CCOP(=O)(O)O [BARASERTIB] | – | – | > 30 µM (inactive) | – | – | > 30 µM (inactive) | > 30 µM (inactive) | > 30 µM (inactive) | – | – | – | – | – | – | – | – | – | > 30 µM (inactive) |
| N#CCNC(=O)c1ccc(-c2ccnc(Nc3ccc(N4CCOCC4)cc3)n2)cc1 [MOMELOTINIB] | – | – | > 30 µM (inactive) | – | > 30 µM (inactive) | > 30 µM (inactive) | – | – | – | – | – | > 30 µM (inactive) | – | 1.36 µM (active) | > 30 µM (inactive) | – | – | – |
| COc1cc(F)c(F)c(Nc2ccc(I)cc2F)c1NS(=O)(=O)C1(C[C@H](O)CO)CC1 [REFAMETINIB] | – | > 30 µM (inactive) | > 30 µM (inactive) | > 30 µM (inactive) | > 30 µM (inactive) | – | > 30 µM (inactive) | – | – | > 30 µM (inactive) | – | > 30 µM (inactive) | > 30 µM (inactive) | > 30 µM (inactive) | > 30 µM (inactive) | > 30 µM (inactive) | > 30 µM (inactive) | – |
| C=CC(=O)Nc1cccc(Nc2nc(Nc3ccc(N4CCN(C(C)=O)CC4)cc3OC)ncc2C(F)(F)F)c1 [ROCILETINIB] | > 30 µM (inactive) | – | > 30 µM (inactive) | – | – | – | > 30 µM (inactive) | – | > 30 µM (inactive) | – | > 30 µM (inactive) | – | – | > 30 µM (inactive) | > 30 µM (inactive) | > 30 µM (inactive) | > 30 µM (inactive) | – |
| C=CCN(/C=C1/C(=O)O[C@H](COC)[C@@]2(C)C1=C(O)C(=O)C1=C2[C@H](OC(C)=O)C[C@]2(C)C(=O)CC[C@@H]12)CC=C [SONOLISIB] | – | > 30 µM (inactive) | – | – | – | – | > 30 µM (inactive) | – | > 30 µM (inactive) | > 30 µM (inactive) | > 30 µM (inactive) | > 30 µM (inactive) | – | > 30 µM (inactive) | – | – | > 30 µM (inactive) | – |
| O[C@H]1CC[C@H](Nc2ncc3nc(Nc4c(F)cc(F)cc4F)n([C@H]4CCOC4)c3n2)CC1 [TANZISERTIB] | > 30 µM (inactive) | – | > 30 µM (inactive) | > 30 µM (inactive) | > 30 µM (inactive) | – | > 30 µM (inactive) | – | > 30 µM (inactive) | > 30 µM (inactive) | – | > 30 µM (inactive) | > 30 µM (inactive) | > 30 µM (inactive) | > 30 µM (inactive) | > 30 µM (inactive) | > 30 µM (inactive) | – |
| Cc1cc(-c2cc(OC(=O)c3ccccc3)ccc2Cl)cc2nnc(Nc3ccc(OCCN4CCCC4)cc3)nc12 [TG100-801] | > 30 µM (inactive) | > 30 µM (inactive) | – | > 30 µM (inactive) | > 30 µM (inactive) | – | > 30 µM (inactive) | > 30 µM (inactive) | > 30 µM (inactive) | > 30 µM (inactive) | > 30 µM (inactive) | > 30 µM (inactive) | > 30 µM (inactive) | > 30 µM (inactive) | > 30 µM (inactive) | – | > 30 µM (inactive) | – |
| C[C@@H]1COC(Nc2ccc3ncnc(Nc4ccc(OCc5nccs5)c(Cl)c4)c3c2)=N1 [VARLITINIB] | – | 0.005 µM (active) | – | > 30 µM (inactive) | > 30 µM (inactive) | > 30 µM (inactive) | > 30 µM (inactive) | > 30 µM (inactive) | > 30 µM (inactive) | > 30 µM (inactive) | – | > 30 µM (inactive) | > 30 µM (inactive) | > 30 µM (inactive) | > 30 µM (inactive) | > 30 µM (inactive) | > 30 µM (inactive) | – |
| COc1cc2ncnc(Nc3ccc(O)cc3)c2cc1OC [WHI-P131] | – | 1.16 µM (active) | – | – | > 30 µM (inactive) | > 30 µM (inactive) | > 30 µM (inactive) | > 30 µM (inactive) | > 30 µM (inactive) | > 30 µM (inactive) | > 30 µM (inactive) | > 30 µM (inactive) | > 30 µM (inactive) | > 30 µM (inactive) | > 30 µM (inactive) | > 30 µM (inactive) | > 30 µM (inactive) | – |

Second part, led by results:

| Kd [2] | Kd [3] | Kd [4] | Kd [5] | Kd [6] | Kd [7] | Kd [8] | Kd [9] | Kd [10] | Kd [11] | Kd (Myosin-10) | Kd [12] | Kd [13] | Kd [14] | Kd [15] | Kd [16] | Kd [17] | SMILES | Kd [1] |
| --- | --- | --- | --- | --- | --- | --- | --- | --- | --- | --- | --- | --- | --- | --- | --- | --- | --- | --- |
| – | – | > 30 µM (inactive) | > 30 µM (inactive) | – | – | – | – | > 30 µM (inactive) | 0.011 µM (active) | > 30 µM (inactive) | > 30 µM (inactive) | > 30 µM (inactive) | > 30 µM (inactive) | – | – | – | CCOc1ccn(-c2ccc(F)cc2)c(=O)c1C(=O)Nc1ccc(Oc2ccnc(N)c2Cl)c(F)c1 [BMS-777607] | – |
| – | – | – | > 30 µM (inactive) | – | > 30 µM (inactive) | > 30 µM (inactive) | – | > 30 µM (inactive) | – | – | > 30 µM (inactive) | > 30 µM (inactive) | > 30 µM (inactive) | – | – | > 30 µM (inactive) | CC(C)(O)CC(=O)NCCn1ccc2ncnc(Nc3ccc(Oc4cccc(C(F)(F)F)c4)c(Cl)c3)c21 [TAK-285] | – |
| > 30 µM (inactive) | > 30 µM (inactive) | – | > 30 µM (inactive) | – | – | > 30 µM (inactive) | > 30 µM (inactive) | > 30 µM (inactive) | > 30 µM (inactive) | – | – | > 30 µM (inactive) | > 30 µM (inactive) | > 30 µM (inactive) | > 30 µM (inactive) | > 30 µM (inactive) | Cc1cc(C(=O)Nc2cc(Oc3ccc4nc(NC(=O)C5CC5)cn4n3)ccc2C)n(C)n1 [TAK-593] | – |
| – | > 30 µM (inactive) | – | > 30 µM (inactive) | > 30 µM (inactive) | > 30 µM (inactive) | > 30 µM (inactive) | > 30 µM (inactive) | > 30 µM (inactive) | > 30 µM (inactive) | – | > 30 µM (inactive) | > 30 µM (inactive) | > 30 µM (inactive) | > 30 µM (inactive) | > 30 µM (inactive) | > 30 µM (inactive) | NC(=O)c1ccc(N(C(N)=O)c2c(F)cccc2F)nc1-c1ccc(F)cc1F [VX-702] | – |
